Results: the NIST ThermoML archive (doi:10.1021/je7003758)

Assay: xn = mol fraction of the nth substance listed
Details: 298.15 K, Liquid

CCCCCCCl [1-chlorohexane] + CN1CCCC1=O
mass density [kg/m3]
Details	x2 = 0.1003	x2 = 0.1988	x2 = 0.305	x2 = 0.4005	x2 = 0.5007	x2 = 0.5974	x2 = 0.7016	x2 = 0.8002	x2 = 0.8995
100 kPa	884.9	897	911	924.2	938.9	954.1	971.5	988.7	1007.4
500 kPa	885.2	897.3	911.2	924.5	939.2	954.4	971.7	988.9	1007.6
1000 kPa	885.5	897.6	911.6	924.9	939.5	954.6	972.1	989.2	1007.9
1500 kPa	886	898.1	912	925.3	939.9	955	972.4	989.5	1008.2
1900 kPa	–	–	912.3	–	–	–	–	–	–
2000 kPa	886.4	898.4	–	925.6	940.2	955.3	972.7	989.8	1008.4
2500 kPa	886.8	898.9	912.8	926	940.6	955.7	973	990.1	1008.7
3000 kPa	887.2	899.2	913.2	926.4	941	956	973.4	990.4	1009
3500 kPa	887.7	899.6	913.6	926.8	941.3	956.2	973.7	990.6	1009.3
4000 kPa	888	900	–	927.1	941.6	956.6	974	991	1009.6
4100 kPa	–	–	914	–	–	–	–	–	–
4500 kPa	888.4	900.4	914.3	–	942	956.9	974.3	991.2	1009.8
4600 kPa	–	–	–	927.5	–	–	–	–	–
4900 kPa	888.7	–	–	–	–	–	–	–	–
5000 kPa	–	900.8	914.6	927.8	942.3	957.3	974.6	991.5	1010.1
5500 kPa	889.2	901.2	915	928.2	942.7	957.6	974.8	991.8	1010.4
5900 kPa	889.6	–	–	–	–	–	–	–	–
6000 kPa	–	901.6	915.4	928.6	943	958	975.2	992.2	1010.7
6500 kPa	890.1	902	915.8	928.9	943.3	958.3	975.5	992.4	1011
7000 kPa	890.4	902.4	916.2	929.2	943.7	958.6	975.8	992.7	1011.2
7400 kPa	–	902.7	–	–	–	–	–	–	–
7500 kPa	890.8	–	916.6	929.6	944	958.9	976.1	993.1	1011.5
8000 kPa	891.2	903.1	917	929.9	944.3	959.2	976.4	993.3	1011.8
8400 kPa	891.6	–	917.2	–	–	–	–	–	–
8500 kPa	–	–	–	930.3	944.7	959.5	976.7	993.6	1012
8600 kPa	–	903.6	–	–	–	–	–	–	–
8900 kPa	892	–	–	–	945	959.8	–	–	–
9000 kPa	–	903.8	917.7	930.7	–	–	977	993.9	1012.3
9400 kPa	–	–	–	930.9	–	–	–	–	–
9500 kPa	892.4	904.2	918.1	–	945.3	960.1	977.3	994.2	1012.6
9900 kPa	–	–	–	–	–	–	977.7	–	–
10000 kPa	892.9	904.7	918.6	931.4	945.7	960.5	–	994.5	1012.9
10500 kPa	893.2	905.1	918.8	931.7	946	960.8	978	994.8	1013.2
11000 kPa	893.5	905.4	919.2	932.1	946.4	961.1	978.3	995.1	1013.5
11400 kPa	893.9	–	–	–	–	961.4	–	–	–
11500 kPa	–	905.8	919.6	932.4	946.8	–	978.6	995.4	1013.8
11900 kPa	–	–	–	–	947	–	978.9	–	–
12000 kPa	894.3	906.2	919.9	932.8	–	961.8	–	995.7	1014
12400 kPa	–	906.5	–	–	–	–	–	995.9	1014.2
12500 kPa	894.7	–	920.2	933.1	947.3	962.2	–	–	–
12600 kPa	–	–	–	–	–	–	979.2	–	–
12900 kPa	–	–	–	–	–	–	979.4	–	–
13000 kPa	895.1	907.1	920.6	933.4	947.7	962.4	–	996.3	1014.5
13400 kPa	–	907.3	–	–	948	–	979.7	996.5	–
13500 kPa	895.5	–	921	933.8	–	962.6	–	–	1014.8
13900 kPa	–	–	–	–	948.3	–	–	–	–
14000 kPa	895.9	907.7	921.3	934.1	–	963.1	980.1	996.8	1015.1
14400 kPa	–	–	921.6	934.4	–	–	–	–	–
14500 kPa	896.3	908	–	–	948.6	963.4	980.3	997.1	1015.4
15000 kPa	896.6	908.4	922	934.8	949	963.7	980.7	997.4	1015.6
15400 kPa	896.9	–	–	–	–	–	–	–	–
15500 kPa	–	908.7	922.3	935.1	949.3	964	981	997.6	1015.8
15900 kPa	–	–	–	–	–	964.2	–	–	–
16000 kPa	897.4	909	922.7	935.4	949.6	–	981.3	–	1016.1
16100 kPa	–	–	–	–	–	–	–	998	–
16500 kPa	897.7	909.4	923	935.7	949.9	964.6	981.5	998.2	1016.4
16900 kPa	–	909.7	–	–	–	964.8	–	–	1016.6
17000 kPa	898	–	923.4	936	950.2	–	981.8	998.4	–
17400 kPa	–	–	–	–	950.5	–	982	–	–
17500 kPa	898.4	910.1	923.6	–	–	965.1	–	998.8	1016.9
17600 kPa	–	–	–	936.5	–	–	–	–	–
18000 kPa	898.8	910.5	924	936.7	950.8	965.4	982.3	999	1017.1
18400 kPa	–	–	–	937	951.1	–	–	–	–
18500 kPa	899.1	910.9	924.3	–	–	965.7	982.7	999.2	–
18700 kPa	–	–	–	–	–	–	–	–	1017.5
19000 kPa	899.5	911.3	924.7	937.4	951.5	966	983	999.6	1017.8
19500 kPa	899.8	911.6	925	937.8	951.8	966.3	983.3	999.8	1017.9
20000 kPa	900.3	912	925.4	938.2	952.2	966.7	983.8	1000.2	1018.3
